Where “and” joins values, the source holds several entries; their conditions need not be identical. Equal entries are not always repeated.
How the values were obtained:
Escherichia coli W677 = experiment: Minimum inhibitory concentration on nutrient agar plates, 37° C., 17 hours; type: cell-based
[1] = system: Bacillus subtilis PCI 219; experiment: as above; type: cell-based
[2] = system: Pseudomonas aeruginosa No. 12; experiment: as above; type: cell-based
[3] = system: Escherichia coli JR66/W677; experiment: as above; type: cell-based
Candida albicans 3147 = experiment: Minimum inhibitory concentration on nutrient agar plates with 1% glucose, 27° C., 40 hours; type: cell-based
Piricularia oryzae = type: cell-based
Xanthomonas oryzae = type: cell-based; settings: 37° C., 17 hours
[4] = system: Staphylococcus aureus or Escherichia coli; experiment: Standard cup-plate assay of potency
[5] = system: Aeromonas salmonecida ATCC 14174; experiment: Minimum inhibitory concentration on nutrient agar plates, 37° C., 17 hours; type: cell-based
[6] = Stability of activity in 50% aqueous ethanol, room temperature, 16 hours; storage and methanol stability; settings: for stability in 50% aqueous ethanol: 50% aqueous ethanol of pH 2.5; for activity reduced to: 50% aqueous ethanol of pH 2.5, room temperature, 16 hours; for stability as solid powder: cold and dark place
[7] = Acute toxicity, intraperitoneal injection in mice; settings: for toxicity: animal and man, as shown by LD50 in mice; for LD50: mice, intraperitoneal, 0.25-0.5% in 10% dimethylsulfoxide-water
Xanthomonas citri = experiment: Minimum inhibitory concentration on nutrient agar plates, 37° C., 17 hours; type: cell-based
Saccharomyces cerevisiae = experiment: Minimum inhibitory concentration on nutrient agar plates with 1% glucose, 27° C., 40 hours; type: cell-based
[8] = system: Klebsiella pneumoniae PCI 602; experiment: Minimum inhibitory concentration on nutrient agar plates, 37° C., 17 hours; type: cell-based
[9] = Partition between n-butanol and water; settings: pH value of 2 to 7
Escherichia coli K-12 = experiment: Minimum inhibitory concentration on nutrient agar plates, 37° C., 17 hours; type: cell-based
[10] = system: Vibrio anguillarum NCBM 6; experiment: as above; type: cell-based
[11] = system: Staphylococcus aureus Smith; experiment: as above; type: cell-based
[12] = system: various bacteria and fungi; experiment: Antibacterial and antifungal spectrum (overall); type: cell-based
Escherichia coli NIHJ = experiment: Minimum inhibitory concentration on nutrient agar plates, 37° C., 17 hours; type: cell-based
leukemia L-1210 cells = experiment: Chemotherapeutic effect against leukemia L-1210 in mice (survival); type: in vivo, mice (CDF 1 strain); settings: i.p. once daily for 10 days
Aspergillus niger = experiment: Minimum inhibitory concentration on nutrient agar plates with 1% glucose, 27° C., 40 hours; type: cell-based
[13] = system: Staphylococcus aureus 209P; experiment: Minimum inhibitory concentration on nutrient agar plates, 37° C., 17 hours; type: cell-based
[14] = isolated colorless powder (Examples 3-6)

| SMILES | Minimum Inhibitory Concentration (Escherichia coli W677) | Minimum Inhibitory Concentration [1] | Minimum Inhibitory Concentration [2] | Minimum Inhibitory Concentration [3] | Minimum Inhibitory Concentration (Candida albicans 3147) | Minimum Inhibitory Concentration (Piricularia oryzae) | Minimum Inhibitory Concentration (Xanthomonas oryzae) | potency [4, 14] | Minimum Inhibitory Concentration [5] | stability in 50% aqueous ethanol [6] | activity reduced to [6] | stability as solid powder [6] | toxicity [7] | LD50 [7] | Minimum Inhibitory Concentration (Xanthomonas citri) | Minimum Inhibitory Concentration (Saccharomyces cerevisiae) | Minimum Inhibitory Concentration [8] | partition coefficient in n-butanol/water [9] | Minimum Inhibitory Concentration (Escherichia coli K-12) | Minimum Inhibitory Concentration [10] | further results |
| --- | --- | --- | --- | --- | --- | --- | --- | --- | --- | --- | --- | --- | --- | --- | --- | --- | --- | --- | --- | --- | --- |
| COc1cc2c(cc1O)N=C[C@@H]1CC[C@H](O)N1C2=O [neothramycin A] | 50 Mcg./ml. | 100 Mcg./ml. | > 100 Mcg./ml. | 100 Mcg./ml. | > 100 Mcg./ml. | 50 Mcg./ml. | 50 Mcg./ml. | 1000 u./mg. | 25 Mcg./ml. | unstable | 25% | stable for a long period of time | low toxicity | 20 to 30 mg/kg | > 100 Mcg./ml. | 50 Mcg./ml. | 50 Mcg./ml. | greater than 5 | 100 Mcg./ml. | 50 Mcg./ml. | potency ([4]; pure neothramycin A from Example 3 as authentic sample): 1000 units per mg; Minimum Inhibitory Concentration [11]: 50 Mcg./ml.; antibacterial and antifungal activity [12]: low antibacterial and antifungal activity; Minimum Inhibitory Concentration (Escherichia coli NIHJ): 100 Mcg./ml.; effects on the survival ratio (leukemia L-1210 cells): highly favorable effects; Minimum Inhibitory Concentration (Aspergillus niger): 100 Mcg./ml.; Minimum Inhibitory Concentration [13]: > 100 Mcg./ml. |
| COc1cc2c(cc1O)N=C[C@@H]1CC[C@@H](O)N1C2=O [neothramycin B] | 100 Mcg./ml. | > 100 Mcg./ml. | > 100 Mcg./ml. | > 100 Mcg./ml. | > 100 Mcg./ml. | > 100 Mcg./ml. | 100 Mcg./ml. | 620 u./mg. and 835 u./mg. | 50 Mcg./ml. | unstable | 22% | stable for a long period of time | low toxicity | 20 to 30 mg/kg | > 100 Mcg./ml. | > 100 Mcg./ml. | 100 Mcg./ml. | greater than 5 | 100 Mcg./ml. | 100 Mcg./ml. | Minimum Inhibitory Concentration [11]: 100 Mcg./ml.; antibacterial and antifungal activity [12]: low antibacterial and antifungal activity; Minimum Inhibitory Concentration (Escherichia coli NIHJ): 100 Mcg./ml.; effects on the survival ratio (leukemia L-1210 cells): highly favorable effects; Minimum Inhibitory Concentration (Aspergillus niger): > 100 Mcg./ml.; Minimum Inhibitory Concentration [13]: > 100 Mcg./ml. |

Reference: US4049497A (priority 1974, dated 1977)
